Experimental data: PubChem BioAssay AID2060620 (Molecular Pharmacology Branch, DTP, NCI, 2025)

System: 328373-195-R-J1-PDC complex spheroids, viability % test/control
Test: Anticancer human tumor 328373-195-R-J1-PDC patient-derived head and neck squamous carcinoma cell line growth inhibition [CLK]
Settings: for IC50: curve of first compound; for viability, T/C: stronger effect = lower value
Outline: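 Patient-derived tumor cells grown as complex spheroids with HUVEC endothelial cells and mesenchymal stem cells, treated with drug combinations. Concentrations descend in half-log steps from near clinical Cmax, or from 10 microM if Cmax unknown.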

[1] = second compound 0.0316 µM, first compound 0.0316 µM
[2] = second compound 0.0316 µM, first compound 0.1 µM
[3] = second compound 0.0316 µM, first compound 0.316 µM
[4] = second compound 0.0316 µM, first compound 1 µM
[5] = second compound 0.0316 µM, first compound 3.16 µM
[6] = second compound 0.0316 µM, first compound 10 µM
[7] = second compound 0.1 µM, first compound 0.0316 µM
[8] = second compound 0.1 µM, first compound 0.1 µM
[9] = second compound 0.1 µM, first compound 0.316 µM
[10] = second compound 0.1 µM, first compound 1 µM
[11] = second compound 0.1 µM, first compound 3.16 µM
[12] = second compound 0.1 µM, first compound 10 µM
[13] = second compound 0.316 µM, first compound 0.0316 µM
[14] = second compound 0.316 µM, first compound 0.1 µM
[15] = second compound 0.316 µM, first compound 0.316 µM
[16] = second compound 0.316 µM, first compound 1 µM
[17] = second compound 0.316 µM, first compound 3.16 µM
[18] = second compound 0.316 µM, first compound 10 µM
[19] = second compound 1 µM, first compound 0.0316 µM
[20] = second compound 1 µM, first compound 0.1 µM
[21] = second compound 1 µM, first compound 0.316 µM
[22] = second compound 1 µM, first compound 1 µM
[23] = second compound 1 µM, first compound 3.16 µM
[24] = second compound 1 µM, first compound 10 µM
[25] = second compound 3.16 µM, first compound 0.0316 µM
[26] = second compound 3.16 µM, first compound 0.1 µM
[27] = second compound 3.16 µM, first compound 0.316 µM
[28] = second compound 3.16 µM, first compound 1 µM
[29] = second compound 3.16 µM, first compound 3.16 µM
[30] = second compound 3.16 µM, first compound 10 µM
[31] = second compound 10 µM, first compound 0.0316 µM
[32] = second compound 10 µM, first compound 0.1 µM
[33] = second compound 10 µM, first compound 0.316 µM
[34] = second compound 10 µM, first compound 1 µM
[35] = second compound 10 µM, first compound 3.16 µM
[36] = second compound 10 µM, first compound 10 µM
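Also: spheroids exposed to the agents for 7 days.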

**Q.** What does the source list for CC(C)CC(NC(=O)C(Cc1ccccc1)NC(=O)c1cnccn1)B(O)O (stereo unspecified) + CN1CCN(c2cc(C(=O)Nc3cc4cc(-c5cnn(C)c5)ccc4cn3)ccn2)CC1?
**A.** IC50 (second compound 0.0316 µM): 1.76 nM; IC50 (second compound 0.1 µM): 1.5 nM; IC50 (second compound 0.316 µM): < 0.949 nM; IC50 (second compound 1 µM): < 0.949 nM; IC50 (second compound 3.16 µM): < 0.949 nM; IC50 (second compound 10 µM): < 0.949 nM; viability, T/C (second compound 0.0316 µM, first compound 0.000949 µM): 98.5%; viability, T/C (second compound 0.0316 µM, first compound 0.003 µM): 8.37%; viability, T/C (second compound 0.0316 µM, first compound 0.00949 µM): 1.89%; viability, T/C (second compound 0.0316 µM, first compound 0.03 µM): 0.2%; viability, T/C (second compound 0.0316 µM, first compound 0.0949 µM): 0.17%; viability, T/C (second compound 0.0316 µM, first compound 0.3 µM): 2.7%; viability, T/C (second compound 0.1 µM, first compound 0.000949 µM): 78.4%; viability, T/C (second compound 0.1 µM, first compound 0.003 µM): 6.61%; viability, T/C (second compound 0.1 µM, first compound 0.00949 µM): 2.17%; viability, T/C (second compound 0.1 µM, first compound 0.03 µM): 0.2%; viability, T/C (second compound 0.1 µM, first compound 0.0949 µM): 1.87%; viability, T/C (second compound 0.1 µM, first compound 0.3 µM): 2.34%; viability, T/C (second compound 0.316 µM, first compound 0.000949 µM): 26.6%; viability, T/C (second compound 0.316 µM, first compound 0.003 µM): 1.25%; viability, T/C (second compound 0.316 µM, first compound 0.00949 µM): 0.78%; viability, T/C (second compound 0.316 µM, first compound 0.03 µM): 0.49%; viability, T/C (second compound 0.316 µM, first compound 0.0949 µM): 1.14%; viability, T/C (second compound 0.316 µM, first compound 0.3 µM): 4.1%; viability, T/C (second compound 1 µM, first compound 0.000949 µM): 0.13%; viability, T/C (second compound 1 µM, first compound 0.003 µM): 3.65%; viability, T/C (second compound 1 µM, first compound 0.00949 µM): 0.97%; viability, T/C (second compound 1 µM, first compound 0.03 µM): 0.1%; viability, T/C (second compound 1 µM, first compound 0.0949 µM): 0.09%; viability, T/C (second compound 1 µM, first compound 0.3 µM): 2.54%; viability, T/C (second compound 3.16 µM, first compound 0.000949 µM): 0.08%; viability, T/C (second compound 3.16 µM, first compound 0.003 µM): 4.42%; viability, T/C (second compound 3.16 µM, first compound 0.00949 µM): 1.48%; viability, T/C (second compound 3.16 µM, first compound 0.03 µM): 0.07%; viability, T/C (second compound 3.16 µM, first compound 0.0949 µM): 1.48%; viability, T/C (second compound 3.16 µM, first compound 0.3 µM): 1.92%; viability, T/C (second compound 10 µM, first compound 0.000949 µM): 2.18%; viability, T/C (second compound 10 µM, first compound 0.003 µM): 1.53%; viability, T/C (second compound 10 µM, first compound 0.00949 µM): 3.09%; viability, T/C (second compound 10 µM, first compound 0.03 µM): 0.11%; viability, T/C (second compound 10 µM, first compound 0.0949 µM): 1.22%; viability, T/C (second compound 10 µM, first compound 0.3 µM): 2.07%

**Q.** With CC1COCCN1c1cc(C2(S(C)(=N)=O)CC2)nc(-c2ccnc3[nH]ccc23)n1 (stereo unspecified) + CN1CCN(c2cc(C(=O)Nc3cc4cc(-c5cnn(C)c5)ccc4cn3)ccn2)CC1 as the compound, how does the IC50 (second compound 0.0316 µM) read?
**A.** 1660 nM

**Q.** What about the IC50 (second compound 0.1 µM) of the same compound?
**A.** 1150 nM

**Q.** And the IC50 (second compound 0.316 µM)?
**A.** < 31.6 nM

**Q.** What about the IC50 (second compound 1 µM) of the same compound?
**A.** < 31.6 nM

**Q.** And the IC50 (second compound 3.16 µM)?
**A.** < 31.6 nM

**Q.** What about the IC50 (second compound 10 µM) of the same compound?
**A.** < 31.6 nM

**Q.** What about the viability, T/C [1] of the same compound?
**A.** 95.4%

**Q.** And the viability, T/C [2]?
**A.** 96.6%

**Q.** What about the viability, T/C [3] of the same compound?
**A.** 88.2%

**Q.** And the viability, T/C [4]?
**A.** 69.3%

**Q.** And the viability, T/C [5]?
**A.** 25.9%

**Q.** And the viability, T/C [6]?
**A.** 8.66%

**Q.** And the viability, T/C [7]?
**A.** 90.9%

**Q.** What about the viability, T/C [8] of the same compound?
**A.** 86.8%

**Q.** And the viability, T/C [9]?
**A.** 81.1%

**Q.** What about the viability, T/C [10] of the same compound?
**A.** 55.2%

**Q.** What about the viability, T/C [11] of the same compound?
**A.** 18%

**Q.** And the viability, T/C [12]?
**A.** 9.2%

**Q.** What about the viability, T/C [13] of the same compound?
**A.** 22.7%

**Q.** And the viability, T/C [14]?
**A.** 37.2%

**Q.** What about the viability, T/C [15] of the same compound?
**A.** 28.5%

**Q.** What about the viability, T/C [16] of the same compound?
**A.** 14.7%

**Q.** And the viability, T/C [17]?
**A.** 7.56%

**Q.** What about the viability, T/C [18] of the same compound?
**A.** 7.95%

**Q.** And the viability, T/C [19]?
**A.** 0.21%

**Q.** What about the viability, T/C [20] of the same compound?
**A.** 0.24%

**Q.** What about the viability, T/C [21] of the same compound?
**A.** 0.58%

**Q.** What about the viability, T/C [22] of the same compound?
**A.** 0.22%

**Q.** What about the viability, T/C [23] of the same compound?
**A.** 2.35%

**Q.** What about the viability, T/C [24] of the same compound?
**A.** 2.29%

**Q.** What about the viability, T/C [25] of the same compound?
**A.** 2.09%

**Q.** And the viability, T/C [26]?
**A.** 0.12%

**Q.** What about the viability, T/C [27] of the same compound?
**A.** 0.16%

**Q.** And the viability, T/C [28]?
**A.** 0.14%

**Q.** And the viability, T/C [29]?
**A.** 1.51%

**Q.** And the viability, T/C [30]?
**A.** 3.51%

**Q.** And the viability, T/C [31]?
**A.** 0.14%

**Q.** What about the viability, T/C [32] of the same compound?
**A.** 1.61%

**Q.** And the viability, T/C [33]?
**A.** 1.87%

**Q.** What about the viability, T/C [34] of the same compound?
**A.** 1.76%

**Q.** And the viability, T/C [35]?
**A.** 1.92%

**Q.** And the viability, T/C [36]?
**A.** 2.57%

**Q.** Which IC50 (second compound 0.0316 µM) does the source give for O=C(c1cc(Cc2n[nH]c(=O)c3ccccc23)ccc1F)N1CCN(C(=O)C2CC2)CC1 + CN1CCN(c2cc(C(=O)Nc3cc4cc(-c5cnn(C)c5)ccc4cn3)ccn2)CC1 here?
**A.** > 10000 nM

**Q.** And the IC50 (second compound 0.1 µM)?
**A.** > 10000 nM

**Q.** And the IC50 (second compound 0.316 µM)?
**A.** < 31.6 nM

**Q.** And the IC50 (second compound 1 µM)?
**A.** < 31.6 nM

**Q.** What about the IC50 (second compound 3.16 µM) of the same compound?
**A.** < 31.6 nM

**Q.** And the IC50 (second compound 10 µM)?
**A.** < 31.6 nM

**Q.** And the viability, T/C [1]?
**A.** 92.9%

**Q.** What about the viability, T/C [2] of the same compound?
**A.** 91%

**Q.** What about the viability, T/C [3] of the same compound?
**A.** 98.9%

**Q.** What about the viability, T/C [4] of the same compound?
**A.** 92.7%

**Q.** What about the viability, T/C [5] of the same compound?
**A.** 90.4%

**Q.** What about the viability, T/C [6] of the same compound?
**A.** 78.5%

**Q.** What about the viability, T/C [7] of the same compound?
**A.** 76.8%

**Q.** And the viability, T/C [8]?
**A.** 81.4%

**Q.** And the viability, T/C [9]?
**A.** 86.4%

**Q.** And the viability, T/C [10]?
**A.** 83.9%

**Q.** And the viability, T/C [11]?
**A.** 79%

**Q.** And the viability, T/C [12]?
**A.** 57.1%

**Q.** And the viability, T/C [13]?
**A.** 23.5%

**Q.** What about the viability, T/C [14] of the same compound?
**A.** 29.2%

**Q.** What about the viability, T/C [15] of the same compound?
**A.** 23.1%

**Q.** What about the viability, T/C [16] of the same compound?
**A.** 27.4%

**Q.** And the viability, T/C [17]?
**A.** 24.4%

**Q.** And the viability, T/C [18]?
**A.** 17.1%

**Q.** What about the viability, T/C [19] of the same compound?
**A.** 0.23%

**Q.** And the viability, T/C [20]?
**A.** 0.16%

**Q.** And the viability, T/C [21]?
**A.** 1.14%

**Q.** And the viability, T/C [22]?
**A.** 0.33%

**Q.** What about the viability, T/C [23] of the same compound?
**A.** 2.95%

**Q.** And the viability, T/C [24]?
**A.** 2.82%

**Q.** And the viability, T/C [25]?
**A.** 2.14%

**Q.** What about the viability, T/C [26] of the same compound?
**A.** 2.06%

**Q.** And the viability, T/C [27]?
**A.** 2.2%

**Q.** What about the viability, T/C [28] of the same compound?
**A.** 1.77%

**Q.** And the viability, T/C [29]?
**A.** 3.1%

**Q.** And the viability, T/C [30]?
**A.** 1.47%

**Q.** And the viability, T/C [31]?
**A.** 0.09%

**Q.** What about the viability, T/C [32] of the same compound?
**A.** 3.55%

**Q.** And the viability, T/C [33]?
**A.** 1.83%

**Q.** And the viability, T/C [34]?
**A.** 0.13%

**Q.** And the viability, T/C [35]?
**A.** 3.63%

**Q.** What about the viability, T/C [36] of the same compound?
**A.** 0.27%
